Experiments:
Format in all cases: biochemical
[1] = molecular target: HDAC-1 (Homo sapiens, UniProt Q13547); test: Enzymatic HDAC inhibition assay (fluorescence), HDAC-1
Protocol: (§1) Enzymatic assays to evaluate HDAC inhibition were performed, and the design involved three steps: (a) Preliminary screening to identify the most promising compounds; (b) Evaluation by a panel of HDAC isoforms to investigate selectivity; and (c) Determination of IC50 values. Firstly, compounds (4–7; 15–26) were evaluated at 10 µM against HDAC-1 and HDAC-2 (Table 2).
(§2) The enzymatic assay to evaluate HDAC inhibitory effects for all final compounds against the distinct isoforms was carried out in accordance with the previously described procedures (Lopes et al., 2021). All compounds were initially screened at 10 µM against HDAC-1 and HDAC-2. […] All the compounds were dissolved in DMSO. A serial dilution of the compounds was performed in 100% DMSO with the highest concentration at 1 mM. Each intermediate compound dilution (in 100% DMSO) was diluted 10x in assay buffer to form a 10% DMSO intermediate dilution in HDAC assay buffer. 5 µL of this dilution was added to a 50 µL reaction to bring the final concentration of DMSO to 1% in all the reactions. Three independent experiments were carried out in triplicate for all experiments. The fluorescence intensity was measured at an excitation of 360 nm and emission of 460 nm using a Tecan Infinite M1000 microplate reader, and the percentage of activity was calculated using the formula: % activity = (F − Fb)/(Ft − Fb), where F = the intensity of fluorescence in the presence of the compound. In the absence of the test compound, the fluorescent intensity (Ft) in each dataset was defined as 100% activity, while in the absence of HDAC, the fluorescent intensity (Fb) in each dataset was set to 0% activity.

[2] = molecular target: HDAC-2 (Homo sapiens, UniProt Q92769); test: Enzymatic HDAC inhibition assay (fluorescence), HDAC-2
Protocol: as §1, §2

[3] = molecular target: HDAC-3 (Homo sapiens, UniProt O15379); test: Enzymatic HDAC selectivity panel, HDAC-3; conditions: compound at 10 µM
Protocol: as §1
as §2, with “Three independent experiments were carried out in triplicate for all experiments.” left out, “In the absence of the test compound, the fluorescent intensity (Ft) in each dataset was defined as 100% activity, while in the absence of HDAC, the fluorescent intensity (Fb) in each dataset was set to 0% activity.” left out

[4] = molecular target: HDAC-5 (Homo sapiens, UniProt Q9UQL6); test: Enzymatic HDAC selectivity panel, HDAC-5; conditions: compound at 10 µM
Protocol: as §1
as §2, with “Three independent experiments were carried out in triplicate for all experiments.” left out, “In the absence of the test compound, the fluorescent intensity (Ft) in each dataset was defined as 100% activity, while in the absence of HDAC, the fluorescent intensity (Fb) in each dataset was set to 0% activity.” left out

[5] = molecular target: T1, HDAC-7 (Homo sapiens, UniProt Q8WUI4); test: Enzymatic HDAC selectivity panel, HDAC-7; conditions: compound at 10 µM
T1 sequence (Q8WUI4 1-952): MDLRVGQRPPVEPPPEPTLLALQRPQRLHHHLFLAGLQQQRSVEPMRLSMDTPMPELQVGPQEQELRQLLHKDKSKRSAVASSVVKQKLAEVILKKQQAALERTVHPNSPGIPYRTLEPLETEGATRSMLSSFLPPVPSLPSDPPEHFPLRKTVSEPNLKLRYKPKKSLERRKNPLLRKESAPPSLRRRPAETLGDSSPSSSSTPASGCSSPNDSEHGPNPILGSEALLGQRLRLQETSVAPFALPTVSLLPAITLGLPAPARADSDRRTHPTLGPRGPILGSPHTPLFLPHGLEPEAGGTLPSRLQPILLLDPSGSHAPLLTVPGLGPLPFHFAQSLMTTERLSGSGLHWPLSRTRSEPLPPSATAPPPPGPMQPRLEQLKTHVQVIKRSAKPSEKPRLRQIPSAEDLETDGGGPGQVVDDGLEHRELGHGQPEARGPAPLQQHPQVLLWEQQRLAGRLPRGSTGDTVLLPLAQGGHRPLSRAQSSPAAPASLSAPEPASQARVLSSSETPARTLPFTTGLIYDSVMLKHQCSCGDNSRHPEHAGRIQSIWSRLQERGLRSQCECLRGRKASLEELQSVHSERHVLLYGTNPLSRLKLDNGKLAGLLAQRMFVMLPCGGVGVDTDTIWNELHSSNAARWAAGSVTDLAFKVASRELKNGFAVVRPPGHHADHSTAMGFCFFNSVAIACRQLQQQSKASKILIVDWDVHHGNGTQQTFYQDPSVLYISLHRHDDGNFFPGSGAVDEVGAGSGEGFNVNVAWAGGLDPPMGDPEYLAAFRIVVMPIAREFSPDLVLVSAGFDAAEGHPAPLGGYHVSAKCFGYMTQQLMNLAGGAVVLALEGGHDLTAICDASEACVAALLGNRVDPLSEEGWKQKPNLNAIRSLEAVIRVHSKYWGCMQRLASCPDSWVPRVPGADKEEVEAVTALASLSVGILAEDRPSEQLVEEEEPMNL
Protocol: as §1
as §2, with “Three independent experiments were carried out in triplicate for all experiments.” left out, “In the absence of the test compound, the fluorescent intensity (Ft) in each dataset was defined as 100% activity, while in the absence of HDAC, the fluorescent intensity (Fb) in each dataset was set to 0% activity.” left out

[6] = molecular target: HDAC-9 (Homo sapiens, UniProt Q9UKV0); test: Enzymatic HDAC selectivity panel, HDAC-9; conditions: compound at 10 µM
Protocol: as §1
as §2, with “Three independent experiments were carried out in triplicate for all experiments.” left out, “In the absence of the test compound, the fluorescent intensity (Ft) in each dataset was defined as 100% activity, while in the absence of HDAC, the fluorescent intensity (Fb) in each dataset was set to 0% activity.” left out

[7] = molecular target: T2, HDAC-10 (Homo sapiens, UniProt Q969S8); test: Enzymatic HDAC selectivity panel, HDAC-10; conditions: compound at 10 µM
T2 sequence (Q969S8 1-669): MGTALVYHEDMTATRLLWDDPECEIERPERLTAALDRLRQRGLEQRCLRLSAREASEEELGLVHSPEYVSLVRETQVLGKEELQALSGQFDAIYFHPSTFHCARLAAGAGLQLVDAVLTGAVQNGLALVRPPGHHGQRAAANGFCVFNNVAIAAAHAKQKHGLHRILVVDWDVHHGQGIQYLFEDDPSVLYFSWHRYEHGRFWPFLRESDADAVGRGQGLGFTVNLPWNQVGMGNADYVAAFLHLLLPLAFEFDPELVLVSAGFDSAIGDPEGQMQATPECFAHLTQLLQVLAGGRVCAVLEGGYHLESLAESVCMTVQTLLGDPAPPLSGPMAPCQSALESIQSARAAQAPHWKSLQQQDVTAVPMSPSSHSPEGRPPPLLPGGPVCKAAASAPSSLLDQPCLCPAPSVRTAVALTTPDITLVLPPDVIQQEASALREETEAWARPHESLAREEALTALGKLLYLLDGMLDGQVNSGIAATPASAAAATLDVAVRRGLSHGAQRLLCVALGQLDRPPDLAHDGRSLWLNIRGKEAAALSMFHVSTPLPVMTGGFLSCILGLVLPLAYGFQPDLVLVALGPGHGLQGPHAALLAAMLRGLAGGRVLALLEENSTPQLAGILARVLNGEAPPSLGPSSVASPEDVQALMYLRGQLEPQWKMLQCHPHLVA
Protocol: as §1
as §2, with “Three independent experiments were carried out in triplicate for all experiments.” left out, “In the absence of the test compound, the fluorescent intensity (Ft) in each dataset was defined as 100% activity, while in the absence of HDAC, the fluorescent intensity (Fb) in each dataset was set to 0% activity.” left out

[8] = molecular target: T3, HDAC-11 (Homo sapiens, UniProt Q96DB2); test: Enzymatic HDAC selectivity panel, HDAC-11; conditions: compound at 10 µM
T3 sequence (Q96DB2 1-347): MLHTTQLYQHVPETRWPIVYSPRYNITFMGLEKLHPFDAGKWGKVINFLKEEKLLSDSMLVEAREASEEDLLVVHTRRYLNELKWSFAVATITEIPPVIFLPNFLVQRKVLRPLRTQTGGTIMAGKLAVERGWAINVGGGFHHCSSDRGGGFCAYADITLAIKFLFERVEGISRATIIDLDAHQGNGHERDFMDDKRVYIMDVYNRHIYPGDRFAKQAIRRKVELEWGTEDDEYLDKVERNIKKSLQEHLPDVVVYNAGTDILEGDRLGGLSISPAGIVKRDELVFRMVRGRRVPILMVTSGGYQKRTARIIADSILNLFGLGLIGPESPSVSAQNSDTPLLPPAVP
Protocol: as §1
as §2, with “Three independent experiments were carried out in triplicate for all experiments.” left out, “In the absence of the test compound, the fluorescent intensity (Ft) in each dataset was defined as 100% activity, while in the absence of HDAC, the fluorescent intensity (Fb) in each dataset was set to 0% activity.” left out

Sequence of HDAC-2 (Q92769 whole entry): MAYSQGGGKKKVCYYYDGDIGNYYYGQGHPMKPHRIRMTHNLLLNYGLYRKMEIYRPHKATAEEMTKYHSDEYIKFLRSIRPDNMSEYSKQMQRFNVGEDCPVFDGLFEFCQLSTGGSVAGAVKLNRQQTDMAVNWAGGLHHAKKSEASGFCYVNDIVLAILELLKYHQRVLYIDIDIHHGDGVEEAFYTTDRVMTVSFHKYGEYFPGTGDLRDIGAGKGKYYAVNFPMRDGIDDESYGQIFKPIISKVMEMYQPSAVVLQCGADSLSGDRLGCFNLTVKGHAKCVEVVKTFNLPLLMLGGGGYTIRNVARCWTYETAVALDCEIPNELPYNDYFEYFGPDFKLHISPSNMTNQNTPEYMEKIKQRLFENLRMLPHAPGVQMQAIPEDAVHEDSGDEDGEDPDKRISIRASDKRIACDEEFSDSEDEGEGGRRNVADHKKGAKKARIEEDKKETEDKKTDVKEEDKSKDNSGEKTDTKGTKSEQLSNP
Sequence of HDAC-1 (Q13547 whole entry, canonical isoform): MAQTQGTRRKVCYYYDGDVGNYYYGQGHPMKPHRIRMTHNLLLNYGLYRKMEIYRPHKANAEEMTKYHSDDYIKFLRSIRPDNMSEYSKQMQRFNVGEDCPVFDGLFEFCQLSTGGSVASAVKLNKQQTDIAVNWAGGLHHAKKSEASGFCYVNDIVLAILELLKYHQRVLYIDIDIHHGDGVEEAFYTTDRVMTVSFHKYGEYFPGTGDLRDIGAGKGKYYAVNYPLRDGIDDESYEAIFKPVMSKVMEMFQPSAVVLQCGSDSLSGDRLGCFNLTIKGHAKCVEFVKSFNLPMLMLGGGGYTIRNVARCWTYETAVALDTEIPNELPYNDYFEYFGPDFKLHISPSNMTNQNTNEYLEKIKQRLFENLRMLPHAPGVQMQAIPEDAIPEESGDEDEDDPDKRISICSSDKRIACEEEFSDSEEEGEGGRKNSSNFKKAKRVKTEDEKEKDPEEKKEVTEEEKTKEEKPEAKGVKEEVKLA
Sequence of HDAC-5 (Q9UQL6 whole entry): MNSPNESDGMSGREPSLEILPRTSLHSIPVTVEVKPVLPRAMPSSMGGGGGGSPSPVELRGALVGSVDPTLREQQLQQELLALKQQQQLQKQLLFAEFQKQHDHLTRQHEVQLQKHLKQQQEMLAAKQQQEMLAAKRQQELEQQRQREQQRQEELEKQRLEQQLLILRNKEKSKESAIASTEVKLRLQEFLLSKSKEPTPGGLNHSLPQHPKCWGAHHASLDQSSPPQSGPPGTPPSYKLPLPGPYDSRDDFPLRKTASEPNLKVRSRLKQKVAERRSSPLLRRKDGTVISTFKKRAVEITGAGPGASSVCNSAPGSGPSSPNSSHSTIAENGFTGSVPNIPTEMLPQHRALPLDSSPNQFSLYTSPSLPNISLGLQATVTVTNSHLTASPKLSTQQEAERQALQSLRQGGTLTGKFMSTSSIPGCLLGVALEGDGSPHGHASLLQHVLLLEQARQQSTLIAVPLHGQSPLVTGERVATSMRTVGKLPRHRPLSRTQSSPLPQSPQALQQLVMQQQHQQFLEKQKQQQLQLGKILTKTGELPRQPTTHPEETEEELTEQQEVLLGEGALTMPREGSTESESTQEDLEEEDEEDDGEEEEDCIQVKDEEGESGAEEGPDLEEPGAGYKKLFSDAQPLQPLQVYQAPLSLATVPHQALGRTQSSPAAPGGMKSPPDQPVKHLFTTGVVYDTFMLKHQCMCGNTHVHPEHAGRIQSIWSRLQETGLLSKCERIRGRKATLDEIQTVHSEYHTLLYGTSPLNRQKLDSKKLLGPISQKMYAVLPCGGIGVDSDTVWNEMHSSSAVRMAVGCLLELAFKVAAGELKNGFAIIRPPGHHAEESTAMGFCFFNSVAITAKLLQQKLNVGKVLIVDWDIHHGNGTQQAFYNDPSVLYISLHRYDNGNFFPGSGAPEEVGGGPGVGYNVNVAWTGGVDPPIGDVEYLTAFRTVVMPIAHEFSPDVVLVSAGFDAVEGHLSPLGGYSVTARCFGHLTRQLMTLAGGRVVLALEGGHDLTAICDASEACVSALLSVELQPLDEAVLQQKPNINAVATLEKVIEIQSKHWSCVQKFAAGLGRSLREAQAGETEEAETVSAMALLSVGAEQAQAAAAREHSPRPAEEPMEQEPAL
Sequence of HDAC-3 (O15379 whole entry): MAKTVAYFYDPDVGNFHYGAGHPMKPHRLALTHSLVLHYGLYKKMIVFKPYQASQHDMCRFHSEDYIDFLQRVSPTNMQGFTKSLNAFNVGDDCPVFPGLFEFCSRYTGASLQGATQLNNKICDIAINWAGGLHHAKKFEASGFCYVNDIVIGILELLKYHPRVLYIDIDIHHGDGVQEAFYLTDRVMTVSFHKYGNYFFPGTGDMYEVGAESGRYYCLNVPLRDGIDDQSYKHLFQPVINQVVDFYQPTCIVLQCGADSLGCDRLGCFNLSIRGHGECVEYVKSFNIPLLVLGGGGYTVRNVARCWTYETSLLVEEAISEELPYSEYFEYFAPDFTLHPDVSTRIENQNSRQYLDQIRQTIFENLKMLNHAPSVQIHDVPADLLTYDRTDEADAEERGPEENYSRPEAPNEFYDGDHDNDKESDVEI
Sequence of HDAC-3 (Q9Y618 395-489 partner limits assumed): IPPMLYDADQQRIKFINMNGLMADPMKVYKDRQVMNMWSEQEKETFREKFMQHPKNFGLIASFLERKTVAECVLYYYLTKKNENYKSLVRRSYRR
Sequence of HDAC-9 (Q9UKV0 whole entry): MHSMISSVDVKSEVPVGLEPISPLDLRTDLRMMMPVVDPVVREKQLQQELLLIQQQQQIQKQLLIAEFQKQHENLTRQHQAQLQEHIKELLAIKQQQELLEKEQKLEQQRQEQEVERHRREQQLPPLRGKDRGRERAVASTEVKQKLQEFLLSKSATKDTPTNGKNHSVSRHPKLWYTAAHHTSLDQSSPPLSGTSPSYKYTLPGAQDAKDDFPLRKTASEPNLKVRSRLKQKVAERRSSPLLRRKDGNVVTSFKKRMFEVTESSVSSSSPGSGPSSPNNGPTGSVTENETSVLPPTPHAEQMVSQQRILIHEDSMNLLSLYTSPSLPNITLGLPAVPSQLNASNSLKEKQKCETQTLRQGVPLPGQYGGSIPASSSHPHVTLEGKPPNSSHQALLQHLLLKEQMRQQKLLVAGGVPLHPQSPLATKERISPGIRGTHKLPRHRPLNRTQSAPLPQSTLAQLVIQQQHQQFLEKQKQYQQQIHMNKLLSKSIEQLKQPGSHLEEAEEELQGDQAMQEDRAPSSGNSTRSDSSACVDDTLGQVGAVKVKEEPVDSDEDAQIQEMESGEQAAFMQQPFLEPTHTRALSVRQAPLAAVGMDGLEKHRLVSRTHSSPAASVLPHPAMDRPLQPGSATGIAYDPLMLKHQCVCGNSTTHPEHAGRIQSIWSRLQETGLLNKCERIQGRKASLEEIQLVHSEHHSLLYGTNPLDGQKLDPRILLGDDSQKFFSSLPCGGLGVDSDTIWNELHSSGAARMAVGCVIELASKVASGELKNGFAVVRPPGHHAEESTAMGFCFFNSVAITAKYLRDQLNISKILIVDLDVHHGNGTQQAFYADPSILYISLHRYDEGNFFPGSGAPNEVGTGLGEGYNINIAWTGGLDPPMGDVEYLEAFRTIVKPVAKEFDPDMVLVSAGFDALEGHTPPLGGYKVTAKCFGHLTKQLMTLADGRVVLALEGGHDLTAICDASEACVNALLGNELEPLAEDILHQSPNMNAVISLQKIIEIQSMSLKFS

inhibition at 10 µM ([1]; compound at 10 µM): 92%
HDAC-1 inhibition ([1]; compound at 10 µM, 10 µM): 93 ± 1.0%
IC50 ([1]; substrate 10 µM): 0.44 µM
inhibition at 10 µM ([2]; compound at 10 µM): 93%
HDAC-2 inhibition ([2]; compound at 10 µM, 10 µM): 92 ± 0.8%
IC50 ([2]; substrate 10 µM): 0.37 µM
inhibition at 10 µM [3]: 82 ± 1.2%
inhibition at 10 µM [4]: 5 ± 0.5%
inhibition at 10 µM [5]: 15 ± 0.7%
inhibition at 10 µM [6]: 7 ± 0.4%
inhibition at 10 µM [7]: 60 ± 1.4%
inhibition at 10 µM [8]: 15 ± 0.6%
SMILES: Nc1ccc(CCc2ccc(C(=O)Nc3ccccc3N)cc2)cc1 [Compound (5)]

Source: publication PMC9611521, “Optimization of Resveratrol Used as a Scaffold to Design Histone Deacetylase (HDAC-1 and HDAC-2) Inhibitors” (Pharmaceuticals, 2022)
